# Legend:
# [1] = system: myeloperoxidase accumulation (acetic acid-induced colitis); assay: Acetic Acid-Induced Colitis in Rats, In Vivo; set-up: species or system male rats (Sprague-Dawley)
# Text: The rat acetic acid-induced colitis bioassay has been described by J. E. Krawisz, et al. in Amer. J. Proc. Gastro. Col. Rec. Surg. 31: 11-18 (1980), and by P. Sharon and W. F. Stenson in Gastroenterolgy 88: 55-63 (1985) and 86: 453-460 (1984). Acetic acid-induced colitis is characterized by the movement of inflammatory cells into the colon, with the number of such cells in the mucosa being measured by the activity of myeloperoxidase, a marker enzyme for these cells. Positive desirable activity is indicated by a reduction in the high levels of myeloperoxidase caused by acetic acid. Male rats (Sprague-Dawley), weighing 150 to 300 g, were pretreated twice daily for two days with either the vehicle (water, or dimethylsulfoxide) or the test inhibitor compound suspended in water or dissolved in dimethylsulfoxide and orally administered. On the third day, the animals were dosed the same as on the previous two days, anesthetized with metofane, and 2 ml of 2.5% acetic acid was injected by syringe into the colonic lumen, followed immediately by 3 ml of air and a rinse consisting of 3 ml of phosphate-buffered saline (the acetic acid is present in the lumen for a sufficient period to cause inflammation without producing severe necrosis or irreversible damage). The animals were administered a second dose of the test compound in the same amount about 16 hours later. 24 hours after the acetic acid treatment, the animals were sacrificed, the colonic mucosa was surgically removed and homogenized in an aqueous buffer at pH 6 with a Tissumizer or similar device and myeloperoxidase was measured in the homogenate using o-phenylenediamine as a chromagen, as described by A. Voller, D. E. Bidwell and A. Bartlett in The Enzyme Linked Immunosorbent Assay (ELISA), Zoological Soc., London, 1979, pages 29-30. Control animals were pretreated with the vehicle and saline in place of acetic acid.
# [2] = molecular target: T1, Δ^5 -lipoxygenase from rat basophilic leukemia (RBL-1) cells (Rattus norvegicus, UniProt P12527); assay: In vitro test for Δ^5-lipoxygenase inhibitors (5-HETE radioimmunoassay); format: biochemical; conditions: for IC50: RBL-1 5-LO, 5-HETE formation, read-out: Inhib. of Δ^5 Lipoxygenase IC50
# T1 construct: The isolated cytosolic fraction was stored in liquid N2 for up to 8 weeks without loss of 5-LO enzyme activity; endogenous in cells; host or cells: RBL-1 cells (ATCC CRL 1378), 113,000×g supernatant (cytosol)
# T1 sequence (P12527 1-673): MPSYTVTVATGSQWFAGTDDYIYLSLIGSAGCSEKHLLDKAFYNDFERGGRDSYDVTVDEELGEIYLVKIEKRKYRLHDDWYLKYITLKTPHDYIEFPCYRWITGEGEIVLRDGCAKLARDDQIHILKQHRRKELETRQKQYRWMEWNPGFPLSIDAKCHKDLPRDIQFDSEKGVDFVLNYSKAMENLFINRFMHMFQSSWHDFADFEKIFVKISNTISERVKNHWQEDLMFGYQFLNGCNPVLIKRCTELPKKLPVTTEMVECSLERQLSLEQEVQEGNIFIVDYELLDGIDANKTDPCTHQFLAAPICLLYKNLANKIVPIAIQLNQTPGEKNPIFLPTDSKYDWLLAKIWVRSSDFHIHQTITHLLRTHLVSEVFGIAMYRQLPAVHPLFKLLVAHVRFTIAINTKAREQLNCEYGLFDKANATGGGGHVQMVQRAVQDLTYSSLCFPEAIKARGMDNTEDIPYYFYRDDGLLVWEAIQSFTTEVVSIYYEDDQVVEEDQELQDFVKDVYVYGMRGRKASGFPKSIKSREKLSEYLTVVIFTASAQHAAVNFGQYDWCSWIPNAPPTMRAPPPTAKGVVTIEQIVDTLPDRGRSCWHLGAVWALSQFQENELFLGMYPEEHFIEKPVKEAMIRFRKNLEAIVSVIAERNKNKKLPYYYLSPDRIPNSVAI
# Description: RBL-1 cells (CRL 1378) were obtained from the American Type Culture Collection, Rockville, MD. DMEM and glutamine were purchased from Flow Labs, McLean, Va. FBS (Gibco, Grand Island, N.Y.) was heat-inactivated for 1 hour at 56° C. Reagents for protein determinations were obtained from Biorad, Rockville Center, N.Y. Arachidonic acid (approx. 99%), ATP (disodium salt), BHT, dextran (clinical grade), tetrasodium EDTA, gelatin, gentamycin sulfate solution, reduced glutathione, 1 M HEPES buffer, indomethacin, NaCl, reduced NADPH, Trizma 7.2, and Trizma 8.5 were purchased from Sigma Chemical, St. Louis, Mo. CaCL2 dihydrate, Norit A charcoal, and citric acid monohydrate were obtained from Fisher Scientific, Pittsburgh, Pa. […] A synthetic 5-HETE standard was supplied by Dr. M. Rosenberger, Dept. of Medicinal Chemistry, Hoffmann La-Roche, Nutley, N.J.; [see Corey, E. J., and Hashimoto, S. (1981) Tet. […] Approximately 7-9 days after thawing, RBL-1 cells growing in log phase were seeded at a density of 7500 viable cells/ml in a closed 89-liter spinner flask. […] RBL-1 cells were harvested by centrifugation at 4° C. at 1500×g for 10 minutes and were washed 3 times with ice cold 0.05M tris-hCl, pH 7.2, tetrasodium EDTA (buffer 1). The cells were washed last in 0.05M Tris-HCl containing 14 μM indomethacin, 1 mM glutathione, 1.5 mM NaCl, and 1 mM tetrasodium EDTA (buffer 2), resuspended at a density of 5×108'/ml approximately 10 ml) and disrupted manually at 4° C. using a 40 ml Dounce (type A pestle) homogenizer. After 5 minutes of homogenization, 95% cell lysis was confirmed by phase contrast microscopy. The broken cells were diluted 1:2 with buffer 2 and centrifuged at 12,380×g for 10 minutes at 4° C. to pellet cellular debris and granules. The 12,380×g supernatant was centrifuged at 113,000×g for 60 minutes to pellet microsomes. The high-speed supernatant (5.9±0.48 mg/ml protein) was frozen immediately in 1 ml aliquots using a dry ice/acetone bath. The isolated cytosolic fraction was stored in liquid N2 for up to 8 weeks without loss of 5-LO enzyme activity. Compounds were dissolved at 25 mM concentration in DMSO, then diluted to final concentrations using 95% ethanol. For a typical enzyme assay, the partially purified 5-LO preparation was preincubated with drug or vehicle for 10 minutes at 30° C. The assay tubes were then transferred at a 37° C. water bath where they received arachidonic acid (8.25 μM final concentration) to initiate 5-LO activity. […] The samples were immediately cooled on ice and neutralized by dilution with 0.05M Tris-HCl, pH 8.5, which contained 25 mg/1 BHT. A boiled cytosol control was placed at the end of each assay to emasure non-enzymatic oxidation of arachidonic acid. […] Under the assay conditions described, the 5-LO catalyzed the conversion of arachidonic acid to 5-HPETE which, as a consequence of peroxidase activity, was reduced to 5-HETE. A specific radioimmunoassay was employed to quantitate the amount (pmoles) of 5-HETE formed during the enzyme reaction. To prepare the immunogen, Dr. M. Rosenberger (Dept. of Medicinal Chemistry) converted the racemic 5-HETE lactone (Corey, E. J., and Hashimoto, S. (1981) Tet. Letters, 22, 299-302) to its hydrazine derivative. The hydrazide was conjugated to thiolated Keyhole Limpet Hemocyanin (Young, […]., and Rokach, J. (1982) Prostaglandins 23, 603-613) using N-ethyl-maleimide as previously described for LTB4 by (Young, R., N, Zomboni, R. and Rokach, J. 91983) Prostaglandins, 26, 605-613). New Zealand White rabbits received multiple intradermal injections on their backs with […] conjugate emulsified in complete Freund's adjuvant. A schedule of injections reported by Salmon (Salmon, J. A. (1978) Prostaglandins, 15, 383-397) was followed. After the monthly i.p. booster injections, blood was obtained from the marginal ear vein 5-7 days later and assessed for antibody titer. […]
# [3] = system: Carrageenan pleurisy; assay: Carrageenan Pleurisy Test (In Vivo); set-up: species or system male Lewis rats; conditions: Rattus norvegicus, po, read-out: Rat Carrageenan Pleurisy % Inhib. of Exudate Volume
# Description: The animals utilized in these studies were male Lewis rats (Charles River Breeding Laboratories) weighing between 230-250 g. […] At 5 or 24 hours after CG injection, the rats were killed by decapitation, exsanguinated, and the pleural cavity exposed by cutting the ribs on both sides of the sternum. The exudate fluid was removed from the pleural cavity with disposable plastic pipettes and its volume quantitated. The pleural cavity was then washed once with phosphate buffered saline containing fetal bovine serum (1:1) and the washings combined with the exudate. The total number of cells in the pleural cavity was quantitated using a Coulter Counter (Model ZM) adjusted to exclude any contaminating RBC. (Published in "Plant Flavonoids in Biology & Medicine: Biochemical, Pharmacological and Structure-Activity Relationships" p. 231-242 (1986) Alan R. Liss, Inc.)
compound,measurement,setting,value
"CCCc1c(OCCCCCc2ccc(O)c(O)c2)ccc(C(C)=O)c1O [1-[4-[5-(3,4-Dihydroxyphenyl)pentyloxy]-2-hydroxy-3-propylphenyl]-1-ethanone]",Rat Acetic Acid Colitis Model % Inhib. of Myeloperoxidase Accumulation,[1]; 10 mg/kg p.o,52 ± 6%
"CCCc1c(OCCCCCCc2cccc(O)c2O)ccc(C(C)=O)c1O [1-[4-[6-(2,3-Dihydroxyphenyl)hexyloxy]]",Rat Acetic Acid Colitis Model % Inhib. of Myeloperoxidase Accumulation,[1]; 10 mg/kg p.o,51 ± 5%
"CCCc1c(OCCCCCCc2cccc(O)c2O)ccc(C(=O)O)c1OC(C)=O [2-Acetyloxy-4-[6-(2,3-dihydroxyphenyl)hexyloxy]-3-propylbenzoic acid]",IC50,[2],190 nM
same,inhibition in vivo at 100 mg/kg,[3]; at 100 mg/kg p.o,42%
"Nc1cc(C(=O)O)ccc1OCCCCCCc1cccc(O)c1O [3-Amino-4-[6-(2,3-dihydroxyphenyl)hexyloxy]benzoic acid]",Rat Acetic Acid Colitis Model % Inhib. of Myeloperoxidase Accumulation,[1]; 1 mg/kg p.o,55 ± 7%
"CCCc1c(OCCc2ccc(O)c(O)c2)ccc(C(=O)O)c1O [4 [2 (3,4 Dihydroxyphenyl)ethoxy]-2 hydroxy 3 propylbenzoic acid]",Rat Acetic Acid Colitis Model % Inhib. of Myeloperoxidase Accumulation,[1]; 10 mg/kg p.o,56 ± 6%
"CCCc1c(OCCCc2cccc(O)c2O)ccc(C(=O)O)c1O [4-[3-(2,3-Dihydroxyphenyl)propoxy]-2-hydroxy-3-propylbenzoic acid]",Rat Acetic Acid Colitis Model % Inhib. of Myeloperoxidase Accumulation,[1]; 10 mg/kg p.o,54 ± 5%
"CCCc1c(OCCCCCc2c(O)c(O)c(Cl)c(Cl)c2Cl)ccc(C(=O)O)c1O [4-[5-(2,3,4-Trichloro-5,6-dihydroxyphenyl)pentyloxy]-2-hydroxy-3-propylbenzoic acid]",Rat Acetic Acid Colitis Model % Inhib. of Myeloperoxidase Accumulation,[1]; 1 mg/kg p.o,115 ± 21%
"CCCc1c(OCCCCCc2c(O)c(O)cc(Cl)c2Cl)ccc(C(=O)O)c1O [4-[5-(2,3-Dichloro-5,6-dihydroxyphenyl)pentyloxy]-2-hydroxy-3-propylbenzoicacid]",Rat Acetic Acid Colitis Model % Inhib. of Myeloperoxidase Accumulation,[1]; 1 mg/kg p.o,73 ± 5%
"CCCc1c(OCCCCCc2c(Cl)ccc(O)c2O)ccc(C(=O)O)c1O [4-[5-(2-Chloro-5,6-dihydroxyphenyl)pentyloxy]-2-hydroxy-3-propylbenzoic acid]",Rat Acetic Acid Colitis Model % Inhib. of Myeloperoxidase Accumulation,[1]; 3 mg/kg p.o,54 ± 9%
"CCCc1c(OCCCCCCc2cccc(OC(C)=O)c2OC(C)=O)ccc(C(=O)O)c1O [4-[6-[2,3-Bis(acetyloxy)phenyl]hexyloxy]-2-hydroxy-3-propylbenzoic acid]",IC50,[2],150 nM
same,inhibition in vivo at 75 mg/kg,[3]; at 75 mg/kg p.o,43%
"CCCc1c(OCCCCCC(=O)c2cc(O)c(O)cc2F)ccc(C(=O)O)c1O [4-[[6-(2-Fluoro-4,5-dihydroxyphenyl)-6-oxohexyl]oxy]-2-hydroxy-3-propylbenzoic acid]",Rat Acetic Acid Colitis Model % Inhib. of Myeloperoxidase Accumulation,[1]; 10 mg/kg p.o,40 ± 5%
"CCCc1c(OCCCCCCc2cc(C)c(O)c(O)c2C)ccc(C(=O)O)c1O [4-[[6-(3,4-Dihydroxy-2,5-dimethylphenyl)hexyloxy]-2-hydroxy-3-propylbenzoicacid]",Rat Acetic Acid Colitis Model % Inhib. of Myeloperoxidase Accumulation,[1]; 3 mg/kg p.o,37 ± 6%
same,Rat Acetic Acid Colitis Model % Inhib. of Myeloperoxidase Accumulation,[1]; 10 mg/kg p.o,85 ± 13%
"CCCc1c(OCCCCCC(=O)c2ccc(O)c(O)c2)ccc(C(=O)O)c1O [4-[[6-(3,4-Dihydroxyphenyl)-6-oxohexyl]oxy]-2-hydroxy-3-propylbenzoic acid]",inhibition at 1 µM,"[2]; read-out: Inhib. of Δ^5 Lipoxygenase, % inhibition at 1 μM",51%
